For assay [1], the system named is multidrug-resistant (MDR) strains of Mycobacterium tuberculosis. Kind of assay: microbe, parasite or virus in culture. The following applies: for MIC: Mycobacterium tuberculosis, 192 h, read-out: Antitubercular activity against Mycobacterium tuberculosis MDR (MIC). The format is cell-based.
Assay [2] has as its system extensively drug resistant (XDR) strains of Mycobacterium tuberculosis. Kind of assay: microbe, parasite or virus in culture. Format: cell-based. The following applies: 192 h, read-out: Antitubercular activity against Mycobacterium tuberculosis XDR (MIC).

These results are taken from patent US11919900B1 (priority 2023, dated 2024).

Converted amounts (≈) assume the structure as drawn.

Turning to `COC(=O)c1c(C(=O)OC)c2c(Br)cc3ccccc3n2c1C(=O)c1ccc(OC)cc1` [QUIN-KNV1, Dimethyl 4-bromo-1-(4-methoxybenzoyl)pyrrolo[1,2-a]quinoline-2,3-dicarboxylate], the MIC in assay [1] and in assay [2] was 2 µg/mL (≈ 4.03 µM) each time.

On to `CCOC(=O)c1cc(C(=O)c2ccc(OC)cc2)n2c1c(Br)cc1ccccc12` [QUIN-KNV2, Ethyl 4-bromo-1-(4-methoxybenzoyl)pyrrolo[1,2-a]quinoline-3-carboxylate], for which the MIC in assay [1] and in assay [2] was 4 µg/mL (≈ 8.84 µM) in each case.

As for `COC(=O)c1c(C(=O)OC)c2c(Br)cc3ccccc3n2c1C(=O)c1ccc(Cl)cc1` [QUIN-KNV3, Dimethyl 4-bromo-1-(4-chlorobenzoyl)pyrrolo[1,2-a]quinoline-2,3-dicarboxylate], the MIC in assay [1] and in assay [2] was 4 µg/mL (≈ 7.99 µM) each time.

Regarding `CCOC(=O)c1cc(C(=O)c2ccc(Cl)cc2)n2c1c(Br)cc1ccccc12` [QUIN-KNV4, Ethyl 4-bromo-1-(4-chlorobenzoyl)pyrrolo[1,2-a]quinoline-3-carboxylate], in assay [1], the MIC turned out to be 8 µg/mL (≈ 17.5 µM).

On to `COC(=O)c1c(C(=O)OC)c2c(Br)cc3ccccc3n2c1C(=O)c1ccc(Br)cc1` [QUIN-KNV5, Dimethyl 4-bromo-1-(4-bromobenzoyl)pyrrolo[1,2-a]quinoline-2,3-dicarboxylate], for which the MIC in assay [1] was 1 µg/mL (≈ 1.83 µM); in assay [2] it was 2 µg/mL (≈ 3.67 µM).

Take `CCOC(=O)c1cc(C(=O)c2ccc(Br)cc2)n2c1c(Br)cc1ccccc12` [QUIN-KNV6, Ethyl 4-bromo-1-(4-bromobenzoyl)pyrrolo[1,2-a]quinoline-3-carboxylate]: the MIC in assay [1] and in assay [2] was 4 µg/mL (≈ 7.98 µM) each time.

In the case of `COC(=O)c1c(C(=O)OC)c2c(Br)cc3ccccc3n2c1C(=O)c1ccc(F)cc1` [QUIN-KNV7, Dimethyl 4-bromo-1-(4-fluorobenzoyl)pyrrolo[1,2-a]quinoline-2,3-dicarboxylate], in assay [1], the MIC was 16 µg/mL (≈ 33 µM).

In the case of `CCOC(=O)c1cc(C(=O)c2ccc(F)cc2)n2c1c(Br)cc1ccccc12` [QUIN-KNV8, Ethyl 4-bromo-1-(4-fluorobenzoyl)pyrrolo[1,2-a]quinoline-3-carboxylate], the MIC in assay [1] and in assay [2] was 4 µg/mL (≈ 9.09 µM) in each case.

Turning to `COC(=O)c1c(C(=O)OC)c2c(Br)cc3ccccc3n2c1C(=O)c1ccc(C#N)cc1` [QUIN-KNV9, Dimethyl 4-bromo-1-(4-cyanobenzoyl)pyrrolo[1,2-a]quinoline-2,3-dicarboxylate], the results for the MIC in assay [1] and in assay [2] were 8 µg/mL (≈ 16.3 µM) and 16 µg/mL (≈ 32.6 µM), respectively.

Turning to `CCOC(=O)c1cc(C(=O)c2ccc(C#N)cc2)n2c1c(Br)cc1ccccc12` [QUIN-KNV10, Ethyl 4-bromo-1-(4-cyanobenzoyl)pyrrolo[1,2-a]quinoline-3-carboxylate], the MIC in assay [1] came out at 16 µg/mL (≈ 35.8 µM).

With `COC(=O)c1c(C(=O)OC)c2c(Br)cc3ccccc3n2c1C(=O)c1ccccc1` [QUIN-KNV11, Dimethyl 1-benzoyl-4-bromopyrrolo[1,2-a]quinoline-2,3-dicarboxylate], the MIC in assay [1] worked out at 16 µg/mL (≈ 34.3 µM).

For the molecule “Ethyl 4-bromo-1-(2-nitrobenzoyl)pyrrolo[1,2-a]quinoline-3-carboxylate [QUIN-KNV12]”, the “Antitubercular activity against Mycobacterium tuberculosis MDR (MIC)” value in assay [1] (MDR-TB, drug resistance at least to isoniazid and rifampicin, REMA, 8 days at 37° C. then resazurin overnight) stood at 8 µg/mL.
